Data set [1] in a line: Density of the aqueous solutions calculated from the weight of 2 mL in a tube. The format is physicochemical.
The nature of data set [2]: T1 and T2 relaxivity measurement by spin echo MRI at varying concentrations. The class given is physicochemical.
The conditions of data set [3]: as in the Examples.
For data set [4] the following is noted: at 20 to 25° C., cited from earlier work.
Where [5] appears, read: aqueous solution that exhibited maximum MRI contrast.
Where [6] appears, read: aqueous solution, spin echo, 22° C.

Values joined by “and” are separate entries in the source; they are usually repeats but may differ in a detail not shown here. Equal entries are not always repeated. Where two headings read alike, the source gives them in different places.

`CNC[C@H](O)[C@@H](O)[C@H](O)[C@H](O)CO.CNC[C@H](O)[C@@H](O)[C@H](O)[C@H](O)CO.O=C([O-])CN(CCN(CC(=O)[O-])CC(=O)O)CCN(CC(=O)[O-])CC(=O)O.[Gd+3]` [Gd (Gd-DTPA), meglumine gadopentetate]: in data set [1] (setting [5]), the Density is 1.0 g/mL. Also, the density of solution entry in data set [1] (no matter what concentration the solution may have) is listed as “about 1 g/mL”. Also, in data set [2] (setting [6]), the “r1 (T1 relaxivity)” value came to 4.2 mM⁻¹ s⁻¹.

Consider `O.[Na+].[Na+].[Na+].[Na+].[Na+].[Na+].[O]=[W](=[O])([O-])[O-].[O]=[W](=[O])([O-])[O-].[O]=[W](=[O])([O-])[O-].[O]=[W](=[O])=[O].[O]=[W](=[O])=[O].[O]=[W](=[O])=[O].[O]=[W](=[O])=[O].[O]=[W](=[O])=[O].[O]=[W](=[O])=[O].[O]=[W](=[O])=[O].[O]=[W](=[O])=[O].[O]=[W](=[O])=[O]` [W (SPT), Sodium polytungstate], for which the water solubility in data set [3] was greater than 1000 mg/mL. Moreover, the results for the “maximum density of aqueous solution” value in data set [4] (listed as sodium polytungstate (SPT)) and in data set [4] were “at most 3.08 g/mL” and 3.08 g/mL, respectively. The Density in data set [1] (setting [5]) is on record as 3.0 g/mL. The “r1 (T1 relaxivity)” value in data set [2] (setting [6]) was 0.00036 mM⁻¹ s⁻¹; in data set [2] (aqueous solution, spin echo, 22° C., listed as SPT) it was 0.00036 mM⁻¹ s⁻¹.

Take `O=S(=O)([O-])[O-].[Cu+2]` [Cu (CuSO4), Copper sulfate]: in data set [1], the Density is listed as 1.0 g/mL and the density of solution result is reported as “about 1 g/mL”. The “r1 (T1 relaxivity)” value in data set [2] was 0.63 and 0.63 mM−1 · sec^−1.

The values above are taken from patent US20150173847A1, “IMAGING MARKER AND UTILIZATION THEREOF” (priority 2012, published 2015).
